Assay results: patent publication EP4789664A1, “NOVEL ANTI[…] AND USES THEREOF” (priority 2025, dated 2026)

Biological target: T1, IN-GCN2 interaction (UniProt P04585+Q9P2K8)
T1 construct: active truncated version of the human protein (192-1024); Recombinant full-length HIV-1 IN was produced in-house; purchased SignalChem (GCN2); IN made in-house in E. coli BL21(DE3)pLysS E12-11G; host or cells: BL21(DE3)pLysS for IN
Assay: biochemical
Format: binding, HIV-1 IN; human GCN2
Conditions: read-out: inhibition of the IN-GCN2 interaction at 100 µM
Protocol: The interaction between IN and GCN2 was monitored using the AlphaLISA technology (Revvity). The reaction was performed in a shallow-well 384-well microplate (Revvity, AlphaPlate-384SW, ProxiPlate) with 24 nM GST-GCN2, 700 nM 6xHis-IN, 10 µg/mL of nickel chelate acceptor beads and glutathione donor beads, the test compound or an equivalent amount of DMSO (solvent at 10 % final concentration) in a buffer composed of 50 mM Tris-HCl pH 7.5, 1 mM DTT, 0.05% Tween 20, 0.1% bovine serum albumin (BSA) and 40 mM NaCl (final volume 15µl). First, the reaction was initiated by adding the various components except the donor beads. After 20 minutes at room temperature, the donor beads were added and the plate sealed. Data acquisition was performed 120 minutes later using a Victor Nivo Multimode Plate Reader (Revvity). Means, standard deviations and graphical representation were generated using Prism 8.4.3 software (GraphPad).
420 molecules from the National Cancer Institute Developmental Therapeutics Program (NCI DTP) were screened as modulators of the IN-GCN2 interaction in vitro. […] Experiments were conducted onto two separate AlphaPlates 384-shallow well, with 180 and 240 molecules respectively and 12 DMSO control each.

T1 sequence (Q9P2K8 192-1024, other chains not shown): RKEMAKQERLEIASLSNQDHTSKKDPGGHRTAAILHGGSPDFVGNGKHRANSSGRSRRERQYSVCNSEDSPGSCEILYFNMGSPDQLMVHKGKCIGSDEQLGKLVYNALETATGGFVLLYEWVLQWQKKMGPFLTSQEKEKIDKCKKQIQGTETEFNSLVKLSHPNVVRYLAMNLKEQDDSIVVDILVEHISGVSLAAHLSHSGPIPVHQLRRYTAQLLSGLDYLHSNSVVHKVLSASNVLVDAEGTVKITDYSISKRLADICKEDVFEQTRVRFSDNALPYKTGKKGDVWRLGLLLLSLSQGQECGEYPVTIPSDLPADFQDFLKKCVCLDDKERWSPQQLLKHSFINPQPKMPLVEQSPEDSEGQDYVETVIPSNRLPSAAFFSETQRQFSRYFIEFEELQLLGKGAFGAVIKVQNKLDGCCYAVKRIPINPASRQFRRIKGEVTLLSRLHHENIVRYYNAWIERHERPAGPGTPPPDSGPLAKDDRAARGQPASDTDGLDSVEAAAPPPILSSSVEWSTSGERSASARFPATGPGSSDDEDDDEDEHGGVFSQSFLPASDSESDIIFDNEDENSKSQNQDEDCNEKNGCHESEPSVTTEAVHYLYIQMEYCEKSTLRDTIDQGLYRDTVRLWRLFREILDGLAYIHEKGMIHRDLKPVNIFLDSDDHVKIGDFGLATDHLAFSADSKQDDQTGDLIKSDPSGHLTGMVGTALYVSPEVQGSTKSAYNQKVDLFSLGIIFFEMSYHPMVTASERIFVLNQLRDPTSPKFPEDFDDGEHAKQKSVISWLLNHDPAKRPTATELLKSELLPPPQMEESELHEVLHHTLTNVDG

| SMILES | inhibition at 100 µM |
| --- | --- |
| COc1cc2c(cc1OC)c1c(OC)c(OC)cc3c1c1c2sc(=S)n1CC3 [III-3a, 7,8,10,11-Tetramethoxy-4,5-dihydrodibenzo[de,g]-[1,3]thiazolo[5,4,3-ij]quinoline-2-thione] | ~80% |
| CCOC(=O)N1CCc2cc(OC)c(OC)c3c2c1cc1cc(OC)c(OC)cc13 [III-3d, Dibenzo[de,g]quinoline-6-carboxylic acid, 4,5-dihydro-1,2,9,10-tetramethoxy-, ethyl ester] | ~55% |
